Source: patent US20260137687A1, “GTPase INHIBITORS AND USES THEREOF” (The Regents of The University of California, priority 2022, published 2026)

Experiments:
[1] = test system: BaF3/G12R cells (±IL-3), TCC-Pan-2 cells, and A375 cells; assay: Cellular activity (phospho-ERK immunoblot, growth inhibition); format: cell-based; settings: at concentrations below 100 μM
Experimental: When indicated, cells were treated with drugs at 40-60% confluency at a final DMSO concentration of 1%. At the end of treatment period, cells were placed on ice. Unless otherwise indicated, adherent cells were washed once with ice-cold PBS (1 mL), scraped with a spatula, and pelleted by centrifugation (500×g, 5 min). Suspension cells were pelleted by centrifugation (500×g, 5 min), washed with 1 mL ice-cold PBS, and pelleted again. Cells were lysed in RIPA buffer supplemented with protease and phosphatase inhibitors (cOmplete and phosSTOP, Roche) on ice for 10 min. Lysates were clarified by high-speed centrifugation (19,000×g, 10 min). Concentrations of lysates were determined with protein BCA assay (Thermo Fisher) and adjusted to 2 mg/mL with additional RIPA buffer (or Co-IP Lysis Buffer). Samples were mixed with 5×SDS Loading Dye and heated at 95° C. for 5 min.
Cells were seeded into 96-well white flat bottom plates (1,000 cells/well) (Corning) and incubated overnight. Cells were treated with the indicated compounds in a nine-point threefold dilution series (100 μL final volume) and incubated for 72 h. Cell viability was assessed using a commercial CellTiter-Glo (CTG) luminescence-based assay (Promega). […] Plates were placed on an orbital shaker for 30 min before recording luminescence using a Spark 20M (Tecan) plate reader.

K-Ras Q61K = K-Ras Q61K (Homo sapiens, UniProt P01116, Q61K); assay: Intact protein mass spectrometry, covalent modification; format: binding; settings: extended incubation at pH 7.5; 50 μM, 16 h
Experimental: (§1) Purified K-Ras variants (4 μM final) were incubated with compounds at 50 or 100 μM (1% v/v DMSO final) in 20 mM HEPES pH 7.5, 150 mM NaCl, 1 mM MgCl2 in a total volume of 150 μL. After the noted time, the samples were analyzed by intact protein LC/MS using a Waters Xevo G2-XS system equipped with an Acquity UPLC BEH C4 1.7 μm column. The mobile phase was a linear gradient of 5-95% acetonitrile/water+0.05% formic acid. The spectra were processed using QuantLynx, giving the ion counts observed for the most abundant species. For assays conducted under an alternate pH, the HEPES buffer was replaced with one of the following buffers (maintaining 150 mM NaCl and 1 mM MgCl2): 20 mM MES pH 6 or 20 mM Tris pH 9.

K-Ras G12D = K-Ras G12D (Homo sapiens, UniProt P01116, G12D); assay: as above; format: binding; settings: extended incubation at pH 7.5; 50 μM, 16 h
Experimental: as §1

K-Ras Q61L = K-Ras Q61L (Homo sapiens, UniProt P01116, Q61L); assay: as above; format: binding; settings: extended incubation at pH 7.5; 50 μM, 16 h
Experimental: as §1

K-Ras(G12R)·GDP = biological target: T1, K-Ras(G12R)·GDP (Homo sapiens, UniProt P01116, G12R); assay: as above; format: binding; settings: for reaction rate with K-Ras(G12R)·GDP: 50 μM
T1 construct: human K-Ras (G12R, aa 1-169); 6xHis tag + TEV cleavage site (N, cleaved yes); made in house; host or cells: E. coli BL21(DE3)
Experimental: as §1

wildtype (WT) K-Ras·GDP = biological target: T2, wildtype (WT) K-Ras·GDP (Homo sapiens, UniProt P01116); assay: as above; format: binding; settings: extended incubation at pH 7.5; 50 μM
T2 construct: human K-Ras (wildtype, aa 1-169); 6xHis tag + TEV cleavage site (N, cleaved yes); made in house; host or cells: E. coli BL21(DE3)
Experimental: as §1

K-Ras G12V = K-Ras G12V (Homo sapiens, UniProt P01116, G12V); assay: as above; format: binding; settings: extended incubation at pH 7.5; 50 μM, 16 h
Experimental: as §1

K-Ras Q61R = K-Ras Q61R (Homo sapiens, UniProt P01116, Q61R); assay: as above; format: binding; settings: extended incubation at pH 7.5; 50 μM, 16 h
Experimental: as §1

For `CC(=O)C(O)(O)C(=O)N1[C@@H]2CC[C@H]1CN(c1nc(OCC34CCCN3CCC4)nc3c(F)c(-c4cccc5cccc(Cl)c45)ncc13)C2` [compound 3, 1-((1R,5S)-3-(7-(8-chloronaphthalen-1-yl)-8-fluoro-2-((tetrahydro-1H-pyrrolizin-7a(5H)-yl)methoxy)pyrido[4,3-d]pyrimidin-4-yl)-3,8-diazabicyclo[3.2.1]octan-8-yl)-2,2-dihydroxybutane-1,3-dione], the cellular activity [1] was “did not show cellular activity”, the “covalent modification of K-Ras Q61K” value (K-Ras Q61K) was “did not modify” and the “covalent modification of K-Ras G12D” value (K-Ras G12D) was “did not modify”. The “covalent modification of K-Ras Q61L” value (K-Ras Q61L) was “did not modify”, the “modification of surface exposed arginines of K-Ras” value (K-Ras(G12R)·GDP) was “not modified” and the “covalent adduct formation with recombinant K-Ras(G12R)·GDP” value (K-Ras(G12R)·GDP; 100 μM compound, pH 7.5, 23° C., adducts +656 Da and +638 Da) was “stoichiometric covalent adduct”. For the same molecule, the “reaction rate with K-Ras(G12R)·GDP” value (K-Ras(G12R)·GDP; pH 6) was “greatly reduced rate”, the “reaction rate with K-Ras(G12R)·GDP” value (K-Ras(G12R)·GDP; pH 8) was “reached maximum” and the “reaction rate with K-Ras(G12R)·GDP” value (K-Ras(G12R)·GDP; pH 9) was “did not further increase”. For the same molecule, the “reversibility of adduct formation” value (K-Ras(G12R)·GDP; purified adduct incubated at pH 7.5 for 7 days at 23° C.) was “irreversible”, the “covalent modification of wildtype K-Ras·GDP” value (wildtype (WT) K-Ras·GDP) was “did not modify” and the “covalent modification of K-Ras G12V” value (K-Ras G12V) was “did not modify”. For the same molecule, the “covalent modification of K-Ras Q61R” value (K-Ras Q61R) was “did not modify”.
